What was measured:
[1] = system: α-myosin heavy chain (α-MyHC) protein levels; assay: α-MyHC cytoblot assay in neonatal rat ventricular myocytes (NRVM); type: cell-based
Protocol: FIG. 1 Concentration-dependent effect of Compound 1 on αMyHC protein levels in the cytoblot assay. NRVM are cultured for 3 days in serum-free medium in the presence of differing amounts of Compound 1. At the end of the culture period, NRVM are fixed and analyzed for α-MyHC protein levels using the BA-G5 monoclonal antibody specific for α-MyHC. Results are collected as RLU using a Packard Fusion Plate reader, and normalized to the signal from samples cultured in the absence of compound (control, set to 100%).
Preparation and culture of neonatal rat ventricular myocytes (NRVM) was performed by removing hearts from 1-3 day old rat neonatal pups, along with the atria and lungs. The ventricles were cut into smaller pieces and digested 3 times with collagenase for 20-30 min at 37° C. The myocytes were then separated from other cell types using a Percoll gradient. The myocyte layer was collected, washed 2 times, and plated on tissue culture grade 10 cm Petri dishes for 1-2 hrs. The non-adherent cells (myocytes) were removed and plated in Costar clear view 96 well plates coated with 0.2% gelatin for at least 2 hrs. The gelatin solution was removed, and the myocytes were resuspended in DMEM high glucose media (Mediatech) containing 10% charcoal/dextran treated FBS (Hyclone) and 1% Penicillin-Streptomycin-Glutamine (PSG, Gibco). Ten thousand NRVM were plated per well in a 100 μl volume, and incubated overnight at 37° C. in 5% CO2 in air. The following day, the media was replaced with 100 μl of serum-free DMEM high glucose medium supplemented with PSG and 0.3% Nutridoma-SP (Roche).
Compounds were reconstituted in DMSO at 30 mM, and aliquots were stored at −20° C. A 1:1000 dilution was prepared in serum-free DMEM medium supplemented with PSG and 0.3% Nutridoma, and sonicated for 5 min at room temperature. After sonication, additional 3 fold dilutions were prepared in the same medium. Diluted compound was then added to the NRVM cultures in a volume of 100 μl. […]
For the α-MyHC cytoblot assay, NRVM cultures were analyzed for α-MyHC protein levels after 3 days of incubation. […] Excess antibody was removed with 3 PBS washes, and a chemiluminescent substrate was added (Pierce SuperSignal West Pico Chemiluminscent Substrate) for 5 min before quantitation on a Packard Fusion Plate Reader.
As shown above in Table 1, Compound 1 increased α-MyHC protein levels as determined by an α-MyHC cytoblot assay. […] After 3 days of incubation with NRVM, α-MyHC protein levels were detected in the cytoblot assay and quantitated (FIG. 1). […] An increase in α-MyHC protein levels was first detected beginning at 30 nM, with a maximal response observed at 3 μM. […]

α-MyHC protein levels = assay: Western blotting of α-MyHC protein in NRVM; type: cell-based, rat; details: NRVM stimulated 3 days; Compound 1 10 nM to 10 μM
Protocol: FIG. 2 Effect of Compound 1 on α-MyHC protein levels as detected by Western blotting. NRVM are stimulated with Compound 1 at different concentrations for 3 days. Protein extracts are prepared, proteins are separated by SDS-PAGE electrophoresis, transferred to PVDF membrane, and detected with an anti-α-MyHC monoclonal antibody.
As an independent measure of changes in α-MyHC protein levels, NRVM stimulated with Compound 1 were analyzed for α-MyHC protein levels by Western blotting. Protein extracts prepared from NRVM stimulated with a range of concentrations of Compound 1 from 10 nM to 10 μM were separated by SDS-PAGE and transferred to PVDF membrane. Levels of α-MyHC protein were detected by Western blotting using the same anti-α-MyHC monoclonal antibody used in the cytoblot assay. […] This experiment verified that the changes in α-MyHC protein detected in the cytoblot assay were also evident by Western blotting.

[2] = system: Hypertrophy of NRVM (secretion of atrial natriuretic factor); assay: Anti-hypertrophic activity in NRVM, ANF ELISA (ANF secretion); type: cell-based; details: Rattus norvegicus, read-out: IC50 of the ANF ELISA (antihypertrophic activity)
Protocol: Anti-hypertrophic Activity of Racemic Compound 1 and the Purified Enantiomers of Compound 1. Neonatal rat ventricular myocytes (NRVM) were isolated from 1 to 3 day-old Sprague-Dawley rats using enzymatic digestion and myocyte enrichment techniques. NRVM were cultured in serum-containing media for 18 hours. For the continuation of culture, serum-free media was used. Hypertrophy of NRVM was induced using pharmacological stimuli, including phenylephrine, endothelin-1, and […]. Hypertrophic responses were determined using methods including the following: measurement of total cellular protein; secretion of atrial natriuretic factor; determination of cell volume; determination of the expression of so-called fetal genes such as atrial natriuretic factor, beta-myosin heavy chain and alpha-skeletal actin. ANF secretion was the most sensitive assay for measuring hypertrophy, and the IC50 of the ANF ELISA was the measurement used to determine antihypertrophic activity.

## CC(=O)C1=C(C)NC(SCC(=O)c2cccc([N+](=O)[O-])c2)=C(C#N)C1c1ccccc1Cl (racemic) [Compound 1]
[1]; 3 days incubation
  % increase of a-MyHC over baseline at 10 mM Cpd: 206%
[1]; 3 days, tested 3 nM to 30 μM
  concentration at which an increase in α-MyHC protein levels was first detected: 30 nM
  concentration of maximal response (α-MyHC protein levels): 3 µM
[1]; Rattus norvegicus, Ventricular myocyte, 72 h, 3 days, average of six independent experiments, read-out: concentration that gave a half-maximal response (α-MyHC protein levels)
  EC50: 60 nM
α-MyHC protein levels
  α-MyHC protein levels by Western blotting: increasing amounts of α-MyHC protein were observed with increasing amounts of Compound 1
[2]
  IC50: 427 nM

Reference: US7485653B2, “1,4-dihydropyridine compounds, pharmaceutical compositions, and methods for the treatment of cardiovascular disease” (Gilead Sciences, Inc., priority 2003, dated 2009)
